Results from publication PMC3065546 (Pain, 2011).
Read-outs that look alike come from different tables or passages of the source.

Columns and labels:
[1] = biological target: T1, cDNA-expressed human CYP2C19 (Homo sapiens, UniProt P33261); assay: biochemical
human δ opioid receptor = human δ opioid receptor (Homo sapiens, UniProt P41143); assay: Opioid receptor binding, [3H]naltrindole, CHO cell membranes
human κ opioid receptor = human κ opioid receptor (Homo sapiens, UniProt P41145); assay: Opioid receptor binding, [3H]U69,593, CHO cell membranes
nociceptive thresholds = format: in vivo, rat; details: for Antinociceptive effects of inhibitor alone: icv 50, 250, 500 nmol (fluconazole 250 and 500 nmol), TF or HP; for Antinociception of inhibitor alone: large icv doses (250-500 nmol), 7 – 11 min after administration, TF and HP; for Antagonism of azole-induced antinociception by naltrexone: naltrexone 5 mg/kg i.p. pre-treatment, TF 11 min post-icv azole
improgan antinociception [2] = format: in vivo; details: improgan 250 nmol icv, TF
[3] = system: brain form of heme oxygenase; details: ref Suppl. Table 1; cited from earlier work
improgan antinociception [4] = format: in vivo, mouse; details: for Decrease of average improgan antinociception in Cpr^low vs control mice: improgan 145 nmol icv
human μ opioid receptor = human μ opioid receptor (Homo sapiens, UniProt P35372); assay: Opioid receptor binding, [3H]DAMGO, CHO cell membranes
human H3 receptor = human H3 receptor (Homo sapiens, UniProt Q9Y5N1); format: binding
[5] = biological target: T1, cDNA-expressed human CYP2C19; details: read-out: Ki CYP2C19; cited from earlier work

Sequence of human μ opioid receptor (P35372 whole entry): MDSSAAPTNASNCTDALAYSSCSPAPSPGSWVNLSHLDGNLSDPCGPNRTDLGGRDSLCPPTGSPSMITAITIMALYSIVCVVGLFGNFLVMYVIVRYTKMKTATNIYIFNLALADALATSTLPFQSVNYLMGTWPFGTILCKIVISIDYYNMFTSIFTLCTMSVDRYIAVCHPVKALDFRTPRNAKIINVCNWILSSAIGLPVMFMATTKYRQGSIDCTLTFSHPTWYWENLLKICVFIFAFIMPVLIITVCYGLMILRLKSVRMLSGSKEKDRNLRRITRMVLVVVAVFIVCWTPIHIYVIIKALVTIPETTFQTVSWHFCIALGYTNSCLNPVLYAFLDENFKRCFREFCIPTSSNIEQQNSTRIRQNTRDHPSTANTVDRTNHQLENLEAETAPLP
Sequence of human κ opioid receptor (P41145 whole entry): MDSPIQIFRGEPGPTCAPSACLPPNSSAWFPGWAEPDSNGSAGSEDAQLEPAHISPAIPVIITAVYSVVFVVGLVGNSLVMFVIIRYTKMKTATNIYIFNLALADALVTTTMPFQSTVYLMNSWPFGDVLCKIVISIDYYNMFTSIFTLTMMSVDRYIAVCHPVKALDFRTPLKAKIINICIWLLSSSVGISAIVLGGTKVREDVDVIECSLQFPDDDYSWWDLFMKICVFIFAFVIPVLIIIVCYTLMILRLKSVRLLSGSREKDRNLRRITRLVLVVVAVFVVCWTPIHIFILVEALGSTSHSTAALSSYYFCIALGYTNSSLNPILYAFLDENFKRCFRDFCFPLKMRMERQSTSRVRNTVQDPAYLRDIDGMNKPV
Sequence of human δ opioid receptor (P41143 whole entry): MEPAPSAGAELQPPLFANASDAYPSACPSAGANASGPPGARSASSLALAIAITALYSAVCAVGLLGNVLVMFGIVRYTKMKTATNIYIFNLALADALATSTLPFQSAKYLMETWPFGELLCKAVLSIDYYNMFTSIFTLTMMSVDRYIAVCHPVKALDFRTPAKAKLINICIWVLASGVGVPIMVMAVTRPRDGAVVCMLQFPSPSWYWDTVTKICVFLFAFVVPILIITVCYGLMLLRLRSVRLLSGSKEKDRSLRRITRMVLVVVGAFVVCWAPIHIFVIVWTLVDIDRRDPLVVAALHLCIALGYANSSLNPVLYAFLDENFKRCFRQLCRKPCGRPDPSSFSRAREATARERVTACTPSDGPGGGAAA
T1 sequence (P33261 whole entry): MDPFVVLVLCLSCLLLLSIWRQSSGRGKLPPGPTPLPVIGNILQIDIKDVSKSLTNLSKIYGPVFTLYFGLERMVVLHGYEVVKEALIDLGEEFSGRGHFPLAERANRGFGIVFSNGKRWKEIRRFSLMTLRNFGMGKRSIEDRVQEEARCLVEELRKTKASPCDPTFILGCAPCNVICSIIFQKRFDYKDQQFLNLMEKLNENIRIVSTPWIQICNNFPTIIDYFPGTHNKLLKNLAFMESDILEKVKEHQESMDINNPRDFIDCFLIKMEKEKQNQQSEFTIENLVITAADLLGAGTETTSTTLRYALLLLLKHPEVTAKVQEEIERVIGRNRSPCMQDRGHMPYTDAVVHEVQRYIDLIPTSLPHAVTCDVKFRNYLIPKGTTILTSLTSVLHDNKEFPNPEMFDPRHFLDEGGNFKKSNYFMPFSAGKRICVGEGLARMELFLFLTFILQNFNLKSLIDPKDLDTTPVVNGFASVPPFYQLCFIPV
Sequence of human H3 receptor (Q9Y5N1 whole entry): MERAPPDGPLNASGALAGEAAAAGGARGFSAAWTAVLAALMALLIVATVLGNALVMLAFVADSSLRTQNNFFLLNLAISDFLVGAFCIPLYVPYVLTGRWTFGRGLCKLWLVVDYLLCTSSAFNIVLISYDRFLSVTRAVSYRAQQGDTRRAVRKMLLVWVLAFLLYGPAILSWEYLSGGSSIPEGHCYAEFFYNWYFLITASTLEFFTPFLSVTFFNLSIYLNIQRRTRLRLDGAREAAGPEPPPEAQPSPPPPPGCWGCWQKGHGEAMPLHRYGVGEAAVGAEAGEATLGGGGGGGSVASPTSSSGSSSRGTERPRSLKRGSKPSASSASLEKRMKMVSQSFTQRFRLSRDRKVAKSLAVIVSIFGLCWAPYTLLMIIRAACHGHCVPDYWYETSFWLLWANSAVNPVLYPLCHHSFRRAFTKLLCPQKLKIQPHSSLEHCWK

Compound `Clc1ccccc1C(c1ccccc1)(c1ccccc1)n1ccnc1` [Clotrimazole, clotrimazole] has a Ki [1] of 316 nM, a Ki (human δ opioid receptor) of 770 ± 25 nM and a Ki (human κ opioid receptor) of 260 ± 8.7 nM. The “Antinociceptive effects of inhibitor alone” value (nociceptive thresholds) was “no significant antinociceptive effects”.

For `OC(Cn1cncn1)(Cn1cncn1)c1ccc(F)cc1F` [Fluconazole, fluconazole], the “Antagonism of improgan antinociception” value (improgan antinociception [2]; inhibitor 100 nmol icv) is given as “nearly-complete antagonism”, the “Antinociceptive effects of inhibitor alone” value (nociceptive thresholds) is given as “no significant antinociceptive effects” and the “Inhibition of the brain form of heme oxygenase” value [3] is given as “do not inhibit”.

With `CN/C(=N\C#N)NCCCc1c[nH]cn1` [Improgan] the “Antinociception in wild-type mice” value (improgan antinociception [4]; 145 nmol icv, 10 - 30 min after administration, tail immersion) was “significant, near-maximal antinociception”, the “Decrease of average improgan antinociception in Cpr^low vs control mice” value (from here on “Decrease”) (improgan antinociception [4]; no CC12, 10 min) was 59% and the “Decrease” value (improgan antinociception [4]; no CC12, 20 min) was 37%. For the same compound, the “Decrease” value (improgan antinociception [4]; no CC12, 30 min) was 41%.

With `CC(=O)N1CCN(c2ccc(OCC3COC(Cn4ccnc4)(c4ccc(Cl)cc4Cl)O3)cc2)CC1` (stereo not drawn) [Ketoconazole, ketoconazole] the Ki (human δ opioid receptor) was greater than 10000 nM, the Ki (human μ opioid receptor) was greater than 10000 nM and the Ki (human κ opioid receptor) was greater than 10000 nM. The “Antinociception of inhibitor alone” value (nociceptive thresholds) was “notable antinociception” and the “Antagonism of azole-induced antinociception by naltrexone” value (shortened to “Antagonism … by naltrexone”) (nociceptive thresholds) was “but not that produced by ketoconazole”.

In the case of `C#CCOc1ccccc1CCCCCC(=O)NS(C)(=O)=O` [MS-PPOH, N-methylsulfonyl-6-(2-propargyloxyphenyl)hexanamide], the Ki (human δ opioid receptor) is reported as greater than 10000 nM, the Ki (human μ opioid receptor) is reported as greater than 10000 nM and the “Attenuation of improgan antinociception” value (improgan antinociception [2]; inhibitor 30 nmol icv) is reported as “virtually complete attenuation”. For the same compound, the Ki (human H3 receptor) was 22200 nM, the Ki (human κ opioid receptor) was greater than 10000 nM and the Ki [5] was greater than 10000 nM.

With `Clc1ccc(COC(Cn2ccnc2)c2ccc(Cl)cc2Cl)c(Cl)c1` (stereo not drawn) [Miconazole, miconazole] the Ki (human δ opioid receptor) was 590 ± 29 nM, the Ki (human μ opioid receptor) was 1400 nM and the “Antagonism of improgan antinociception” value (improgan antinociception [2]; inhibitor 10 nmol icv) was “nearly-complete antagonism”. For the same compound, the Ki (human H3 receptor) was 4470 nM, the Ki (human κ opioid receptor) was 760 ± 120 nM and the “Antinociception of inhibitor alone” value (nociceptive thresholds) was “notable antinociception”. The “Antagonism … by naltrexone” value (nociceptive thresholds) was “did not achieve robust statistical significance”.

In the case of `Clc1ccc(CSC(Cn2ccnc2)c2ccc(Cl)cc2Cl)cc1` (stereo not drawn) [Sulconazole, sulconazole], the “Antagonism … by naltrexone” value (nociceptive thresholds) is reported as “completely blocked”.
